This is an account of results in patent US8648092B2, “Imidazo[1,2-a]pyridine derivatives: preparation and pharmaceutical applications” (MEI Pharma, priority 2005, dated 2014).

Broadly, the IC50 is the midpoint of a concentration-inhibition curve. Usually GI50 stands for the concentration giving 50% growth inhibition. Read a high GI50 as lower sensitivity of the cells.

A value given as a limit tells only on which side of the number the result lay.

Experiment [1] has as its target HDAC1 enzyme (recombinant GST-HDAC1) (Homo sapiens (Human), UniProt Q13547). The experiment can be described thus: In vitro HDAC assay for determination of IC50 values (BIOMOL fluorescent-based HDAC activity assay). It counts as biochemical. To be noted: Flur de lys substrate, 2 h room temperature, read-out: IC50 (HDAC 1). The method, then:
Biological Testing and Enzyme Assays Recombinant GST-HDAC1 Protein Expression and Purification
Human cDNA library was prepared using cultured SW620 cells. Amplification of human HDAC1 coding region from this cDNA library was cloned separately into the baculovirus expression pDEST20 vector (GATEWAY Cloning Technology, Invitrogen Pte Ltd). The pDEST20-HDAC1 construct was confirmed by DNA sequencing. Recombinant baculovirus was prepared using the Bac-To-Bac method following the manufacturer's instruction (Invitrogen Pte Ltd).
Expression of GST-HDAC1 was done by infecting SF9 cells (Invitrogen Pte Ltd) with pDEST20-HDAC1 baculovirus at MOI=1 for 48 h. Soluble cell lysate was incubated with pre-equilibrated Glutathione Sepharose 4B beads (Amersham) at 4° C. for 2 h. The beads were washed with PBS buffer for 3 times. The GST-HDAC1 protein was eluted by elution buffer containing 50 mM Tris, pH8.0, 150 mM NaCl, 1% Triton X-100 and 10 mM or 20 mM reduced Glutathione. The purified GST-HDAC1 protein was dialyzed with HDAC storage buffer containing 10 mM Tris, pH7.5, 100 mM NaCl and 3 mM MgCl2. 20% Glycerol was added to purified GST-HDAC1 protein before storage at −80° C.
In Vitro HDAC Assay for Determination of IC50 Values
The assay has been carried out in 96 well format and the BIOMOL fluorescent-based HDAC activity assay has been applied. […] Flur de lys Developer was added and the reaction was incubated for 10 min. Briefly, deacetylation of the substrate sensitizes it to the developer, which then generates a fluorophore. The fluorophore is excited with 360 nm light and the emitted light (460 nm) is detected on a fluorometric plate reader (Tecan Ultra Microplate detection system, Tecan Group Ltd.).
The analytical software, Prism 4.0 (GraphPad Software Inc) has been used to generate IC50 from a series of data.

The next experiment deals with Colo205 cells. The experiment can be described thus: Cell-based proliferation assay for determination of GI50 values (CyQUANT). The arrangement: species or system human. The procedure:
Cell-Based Proliferation Assay for Determination of GI50 Values
Human cancer cell lines (e.g. Colo205) were obtained from ATCC. Colo205 cells were cultivated in RPMI 1640 containing 2 mM L-Glutamine, 5% FBS, 1.0 mM Na Pyruvate. Colo205 cells were seeded in 96-wells plate at 5000 cells per well. The plates were incubated at 37° C., 5% CO2, for 24 h. Cells were treated with compounds at various concentrations for 96 h. Cell growth was then monitored using CyQUANT® cell proliferation assay (Invitrogen Pte Ltd). Dose response curves were plotted to determine GI50 values for the compounds using XL-fit (ID Business Solution, Emeryville, Calif.). GI50 is defined as the concentration of compound required for 50% inhibition of cell growth.
The cellular or growth inhibition activity results of representative compounds are shown in Table 4 below (unit in the table is micromolar).

[2] abbreviates: Homo sapiens, COLO 205, 96 h treatment.
Where [3] appears, read: Homo sapiens, COLO 205, 96 h, 96 h treatment.

Sequence of HDAC1 enzyme (recombinant GST-HDAC1) (Q13547 whole entry): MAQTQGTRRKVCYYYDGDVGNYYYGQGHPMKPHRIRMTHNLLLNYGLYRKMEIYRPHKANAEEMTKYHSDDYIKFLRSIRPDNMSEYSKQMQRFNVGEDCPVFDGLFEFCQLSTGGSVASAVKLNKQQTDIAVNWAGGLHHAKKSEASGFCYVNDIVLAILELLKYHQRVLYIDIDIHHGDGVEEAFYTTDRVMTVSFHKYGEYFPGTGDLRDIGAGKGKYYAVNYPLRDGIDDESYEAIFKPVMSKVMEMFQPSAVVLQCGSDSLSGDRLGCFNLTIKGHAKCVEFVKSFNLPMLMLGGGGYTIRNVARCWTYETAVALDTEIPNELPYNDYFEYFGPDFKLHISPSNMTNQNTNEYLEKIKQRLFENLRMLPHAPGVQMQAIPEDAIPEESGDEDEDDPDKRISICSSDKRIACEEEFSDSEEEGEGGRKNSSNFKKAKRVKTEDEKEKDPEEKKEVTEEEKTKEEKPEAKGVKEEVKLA

For `CCC(CC)CN(C)Cc1c(C(C)(C)C)nc2cc(/C=C/C(=O)NO)ccn12` [Compound 107, 3-(2-tert-Butyl-3-{[(2-ethyl-butyl)-methyl-amino]-methyl}-imidazo[1,2-a]pyridin-7-yl)-N-hydroxy-acrylamide], the IC50 in experiment [1] came out at 410 nM. For the same molecule, the GI50 in the experiment on Colo205 cells (setting [2]) was found to be 2300 nM.
`CC(C)(C)Nc1c(C(=O)O)nc2ccc(/C=C/C(=O)NO)cn12` [Compound 12, 3-tert-Butylamino-6-(2-hydroxycarbamoyl-vinyl)-imidazo[1,2-a]pyridine-2-carboxylic acid]: the GI50 with Colo205 cells (setting [2]) turned out to be 20000 nM.
With `CCC(CC)CN(CC)Cc1c(C(C)(C)C)nc2cc(/C=C/C(=O)NO)ccn12` [Compound 93, 3-(2-tert-Butyl-3-{[ethyl-(2-ethyl-butyl)-amino]-methyl}-imidazo[1,2-a]pyridin-7-yl)-N-hydroxy-acrylamide], the concentration for half-maximal inhibition (IC50) in experiment [1] came out at 190 nM. Also, the GI50 in the experiment with Colo205 cells (setting [2]) was 970 nM.
Consider `CCCCc1nc2cc(/C=C/C(=O)NO)ccn2c1CN(C)CCCC` [Compound 76, 3-{2-Butyl-3-[(butyl-methyl-amino)-methyl]-imidazo[1,2-a]pyridin-7-yl}-N-hydroxy-acrylamide], for which the half-maximal inhibitory concentration (IC50) in experiment [1] came out at 70 nM. Further, the GI50 with Colo205 cells (setting [2]) came to 170 nM.
Taken in the same sequence, the figures for `CCCCc1nc2cc(/C=C/C(=O)NO)ccn2c1CN(CC)CCC(C)CC(C)(C)C` (stereo not shown) [Compound 119, 3-(2-Butyl-3-{[ethyl-(3,55-trimethyl-hexyl)-amino]-methyl}-imidazo[1,2-a]pyridin-7-yl)-N-hydroxy-acrylamide] were 200 nM and 530 nM.
In the experiment with Colo205 cells (setting [3]), `CCCCc1nc2cc(/C=C/C(=O)NO)ccn2c1CN(CC)CC(C)CCC` (stereo not shown) [Compound 113, 3-(2-Butyl-3-{[ethyl-(2-methyl-pentyl)-amino]-methyl}-imidazo[1,2-a]pyridin-7-yl)-N-hydroxy-acrylamide] showed a GI50 of 370 nM.
With `CCc1nc2ccc(/C=C/C(=O)NO)cn2c1NCCOC` [Compound 11, 3-[2-Ethyl-3-(2-methoxy-ethylamino)-imidazo[1,2-a]pyridin-6-yl]-N-hydroxy-acrylamide], the IC50 in experiment [1] is 6000 nM. In addition, in the experiment with Colo205 cells (setting [2]), the GI50 was over 10000 nM.
With `CCCCc1nc2cc(/C=C/C(=O)NO)ccn2c1CN(CC)CC(C)CCC` (stereo not shown) [Compound 116, 3-(2-Butyl-3-{[ethyl-(2-methyl-pentyl)-amino]-methyl}-imidazo[1,2-a]pyridin-7-yl)-N-hydroxy-acrylamide], the IC50 in experiment [1] worked out at 80 nM. In the experiment with Colo205 cells (96 h treatment), this molecule displayed a GI50 of 490 nM.
In the case of `CCCCCc1nc2cc(/C=C/C(=O)NO)ccn2c1CNC(C)(C)C` [Compound 128, 3-[3-(tert-Butylamino-methyl)-2-pentyl-imidazo[1,2-a]pyridin-7-yl]-N-hydroxy-acrylamide], in experiment [1], the IC50 came out at 20 nM. In addition, the GI50 in the experiment on Colo205 cells (setting [2]) was 70 nM.
The like results for `CCCCCCc1nc2cc(/C=C/C(=O)NO)ccn2c1NCCC(=O)NCC(F)(F)F` [Compound 23, 3-{2-Hexyl-3-[2-(2,2,2-trifluoro-ethylcarbamoyl)-ethylamino]-imidazo[1,2-a]pyridin-7-yl}-N-hydroxy-acrylamide] were, in that order, 160 nM and 15000 nM.
Take `CCCCCCc1nc2cc(C=CC(=O)NO)ccn2c1NCCC(=O)NC(C)(C)C` [Compound 22, 3-[3-(2-tert-Butylcarbamoyl-ethylamino)-2-hexyl-imidazo[1,2-a]pyridin-7-yl]-N-hydroxy-acrylamide]: the IC50 in experiment [1] was determined as 140 nM. In the experiment on Colo205 cells (setting [2]), it took 19000 nM to inhibit growth by half (GI50).
`CCCCCCc1nc2cc(/C=C/C(=O)NO)ccn2c1NCCC(=O)NCC(C)(C)CN(C)C` [Compound 35, 3-{3-[2-(3-Dimethylamino-2,2-dimethyl-propylcarbamoyl)-ethylamino]-2-hexyl-imidazo[1,2-a]pyridin-7-yl}-N-hydroxy-acrylamide]: the IC50 in experiment [1] amounted to 140 nM. Also, in the experiment with Colo205 cells (setting [2]), halving of growth (GI50) required 9300 nM.
Taken in the same sequence, the figures for `CCCCCN(CC)Cc1c(C(C)(C)C)nc2cc(/C=C/C(=O)NO)ccn12` [Compound 87, 3-{2-tert-Butyl-3-[(ethyl-pentyl-amino)-methyl]-imidazo[1,2-a]pyridin-7-yl}-N-hydroxy-acrylamide] were 130 nM and 750 nM.
The like results for `CCCCN(CC)Cc1c(C(C)(C)C)nc2cc(/C=C/C(=O)NO)ccn12` [Compound 85, 3-{2-tert-Butyl-3-[(butyl-ethyl-amino)-methyl]-imidazo[1,2-a]pyridin-7-yl}-N-hydroxy-acrylamide] were, in that order, 60 nM and 680 nM.
Taken in the same sequence, the figures for `CC(C)(C)CNCc1c(C(C)(C)C)nc2cc(/C=C/C(=O)NO)ccn12` [Compound 67, 3-[2-tert-Butyl-3-[(2,2-dimethyl-propylamino)-methyl]-imidazo[1,2-a]pyridin-7-yl]-N-hydroxy-acrylamide] were 190 nM and 1500 nM.
Molecule `CCC(CC)NCc1c(C(C)(C)C)nc2cc(C=CC(=O)NO)ccn12` [Compound 68, 3-{2-tert-Butyl-3-[(1-ethyl-propylamino)-methyl]-imidazo[1,2-a]pyridin-7-yl}-N-hydroxy-acrylamide] yielded a GI50 in the experiment with Colo205 cells (setting [3]) of 1500 nM.
As for `CCCCCCc1nc2cc(/C=C/C(=O)NO)ccn2c1NCCC(=O)NCCOC` [Compound 24, 3-{2-Hexyl-3-[2-(2-methoxy-ethylcarbamoyl)-ethylamino]-imidazo[1,2-a]pyridin-7-yl}-N-hydroxy-acrylamide], in experiment [1], the concentration for half-maximal inhibition (IC50) turned out to be 130 nM. It took 40000 nM to inhibit growth in the experiment on Colo205 cells (setting [2]) by half (GI50).
In the experiment with Colo205 cells (setting [2]), `CCN(CCC(C)C)Cc1c(CC(C)C)nc2cc(/C=C/C(=O)NO)ccn12` [Compound 135, 3-(3-{[Ethyl-(3-methyl-butyl)-amino]-methyl}-2-isobutyl-imidazo[1,2-a]pyridin-7-yl)-N-hydroxy-acrylamide] had a GI50 of 150 nM.
`CCC(C)CN(CC)Cc1c(C(C)(C)C)nc2cc(/C=C/C(=O)NO)ccn12` (stereo not shown) [Compound 88, 3-(2-tert-Butyl-3-{[ethyl-(2-methyl-butyl)-amino]-methyl}-imidazo[1,2-a]pyridin-7-yl)-N-hydroxy-acrylamide]: the GI50 with Colo205 cells (setting [2]) is 2200 nM.
Molecule `CCCCCCCN(CC)Cc1c(C(C)(C)C)nc2cc(/C=C/C(=O)NO)ccn12` [Compound 94, 3-{2-tert-Butyl-3-[(ethyl-heptyl-amino)-methyl]-imidazo[1,2-a]pyridin-7-yl}-N-hydroxy-acrylamide] came in with a GI50 in the experiment with Colo205 cells (setting [3]) of 2700 nM.
The molecule `CCN(CCC(C)(C)C)Cc1c(CC(C)C)nc2cc(/C=C/C(=O)NO)ccn12` [Compound 136, 3-(3-{[(3,3-Dimethyl-butyl)-ethyl-amino]-methyl}-2-isobutyl-imidazo[1,2-a]pyridin-7-yl)-N-hydroxy-acrylamide] displayed a GI50 in the experiment with Colo205 cells (setting [2]) of 170 nM.
Same read-out and setting: the same measure for `CCN(CCC(C)C)Cc1c(C)nc2cc(/C=C/C(=O)NO)ccn12` [Compound 124, 3-(3-{[Ethyl-(3-methyl-butyl)-amino]-methyl}-2-methyl-imidazo[1,2a]pyridin-7-yl)-N-hydroxy-acrylamide]: 110 nM.
On the same count and under the same terms, the same measure for `CCN(CCC(C)C)Cc1c(CCC(C)C)nc2cc(/C=C/C(=O)NO)ccn12` [Compound 142, 3-[3-{[Ethyl-(3-methyl-butyl)-amino]-methyl}-2-(3-methyl-butyl)-imidazo[1,2-a]pyridin-7-yl]-N-hydroxy-acrylamide]: 130 nM; for `COCCNc1c(CCC(=O)O)nc2ccc(/C=C/C(=O)NO)cn12` [Compound 10, 3-[6-(2-Hydroxycarbamoyl-vinyl)-3-(2-methoxy-ethylamino)-imidazo[1,2-a]pyridin-2-yl]-propionic acid]: 39000 nM; for `CCCCN(CCCC)Cc1c(C)nc2cc(/C=C/C(=O)NO)ccn12` [Compound 81, 3-(3-Dibutylaminomethyl-2-methyl-imidazo[1,2-a]pyridin-7-yl)-N-hydroxy-acrylamide]: 800 nM.
On the same count and under the same terms, the same measure for `CCCCCCc1nc2cc(/C=C/C(=O)NO)ccn2c1NCCC(=O)N(C)CC#N` [Compound 31, 3-{3-[2-(Cyanomethyl-methyl-carbamoyl)-ethylamino]-2-hexyl-imidazo[1,2-a]pyridin-7-yl}-N-hydroxy-acrylamide]: 1900 nM.
